In US5298494A, “Monosaccharides having anti-proliferation and anti-inflammatory activity, compositions and uses thereof” (Greenwich Pharmaceuticals Incorporated, priority 1993, dated 1994):
Entries after “also recorded” stand apart in the source; their conditions may differ. Like-named read-outs stand apart in the source and are kept apart here.

Test system: T lymphocytes (normal mouse spleen cells) stimulated with ConA
Assay: Mouse Spleen Cell ConA Blastogenesis Assay
Type: cell-based, mouse (C57Bl/6)
Details: for inhibition at 0.01 µg/mL / inhibition at 0.1 µg/mL / inhibition at 1 µg/mL / inhibition at 2.5 µg/mL / inhibition at 10 µg/mL / inhibition at 25 µg/mL / inhibition at 100 µg/mL / inhibition at 300 µg/mL / inhibition at 750 µg/mL / inhibition at 0.001 µg/mL: Mus musculus, T-lymphocyte; for strong antiproliferative effect on ConA blastogenic response: concentration not given
Text: It is well known that several plant lectins, when cultured in vitro with lymphocytes, stimulate cellular activation and proliferation. Concanavolin, (ConA) selectively stimulates the blastogenic response of T lymphocytes.
Six to 8 week old male C57Bl/6 mice were purchased from Harlan Sprague Dawley (Indianapolis, Ind.).
Spleens were removed and were homogenized to obtain a single cell suspension. Erythrocytes were lysed by hypotonic shock. Upon determination of the viability and concentration of the lymphoid cells, they were adjusted to 4×10^6 cells/ml in culture medium (RPMI-1640) supplemented with 10% fetal bovine serum; 100 ug/ml streptomycin; 100 U/ml penicillin, 0.2M hepes buffer; 5×10^-5 M 2-mercaptoethanol and 2 mM glutamine). seeded into microtiter plate wells at 2×10^5 cells/0.050 ml/well. To these cultures were added various doses of experimental compounds and ConA at a final concentration of 4 or 1 ug/ml. Control cultures consisted of cells, ConA and culture medium containing the vehicle, DMSO only. […] For the testing of the methyl 1,3-O-isopropylidene-6-O-n-heptyl-α-D-fructofuranoside compound indomethacin and NDGA were used as controls. All cultures were run in triplicate.
Solutions of compounds of the invention in DMSO were prepared and dilutions were made in culture medium. Assay concentrations were either: 1, 2.5, 10, 25, 100, 300 and 750 ug/ml or 0.001, 0.01, 0.1, 1, 2.5, 10, 25 and 100 ug/ml.
Cultures were incubated for 3 days at 37° C. in a humidified atmosphere of 5% of CO2 in air. For the last 18 hours of culture, 1 uCi of ^3 H-thymidine was also incubated in each well. The cells were precipitated by a multi-channel harvester. The amount of ^3 H-thymidine incorporated by the cultures, as a measure of cell proliferation, was measured in a liquid scintillation counter. The amount of radioactive incorporation is proportional to the amount of cellular proliferation in individual wells. The students T test was used to determine the significance of the difference between experimental and control values.

[1] = ConA 1 ug/ml, 0.01 ug/ml, read-out: % Change from Control (Table II)
[2] = ConA 1 ug/ml, compound 0.01 ug/ml, read-out: % change from control, ConA blastogenic response
[3] = ConA 1 ug/ml, compound 0.1 ug/ml, read-out: % change from control, ConA blastogenic response
[4] = ConA 1 ug/ml, compound 1 ug/ml, read-out: % change from control, ConA blastogenic response
[5] = ConA 1 ug/ml, compound 2.5 ug/ml, read-out: % change from control, ConA blastogenic response
[6] = ConA 1 ug/ml, compound 10 ug/ml, read-out: % change from control, ConA blastogenic response
[7] = ConA 1 ug/ml, compound 25 ug/ml, read-out: % change from control, ConA blastogenic response
[8] = ConA 1 ug/ml, compound 100 ug/ml, read-out: % change from control, ConA blastogenic response
[9] = ConA 4 ug/ml, 0.01 ug/ml, read-out: % Change from Control (Table II)
[10] = ConA 4 ug/ml, compound 0.01 ug/ml, read-out: % change from control, ConA blastogenic response
[11] = ConA 4 ug/ml, compound 0.1 ug/ml, read-out: % change from control, ConA blastogenic response
[12] = ConA 4 ug/ml, compound 1 ug/ml, read-out: % change from control, ConA blastogenic response
[13] = ConA 4 ug/ml, compound 2.5 ug/ml, read-out: % change from control, ConA blastogenic response
[14] = ConA 4 ug/ml, compound 10 ug/ml, read-out: % change from control, ConA blastogenic response
[15] = ConA 4 ug/ml, compound 25 ug/ml, read-out: % change from control, ConA blastogenic response
[16] = ConA 4 ug/ml, compound 100 ug/ml, read-out: % change from control, ConA blastogenic response
[17] = ConA 1 ug/ml, compound 300 ug/ml, read-out: % change from control, ConA blastogenic response
[18] = ConA 1 ug/ml, compound 750 ug/ml, read-out: % change from control, ConA blastogenic response
[19] = ConA 4 ug/ml, compound 300 ug/ml, read-out: % change from control, ConA blastogenic response
[20] = ConA 4 ug/ml, compound 750 ug/ml, read-out: % change from control, ConA blastogenic response
[21] = ConA 1 ug/ml, compound 10 ug/ml
[22] = ConA 1 ug/ml, compound 25 ug/ml
[23] = ConA 1 ug/ml, compound 100 ug/ml
[24] = ConA 1 ug/ml, compound 300 ug/ml
[25] = ConA 1 ug/ml, compound 750 ug/ml
[26] = ConA 4 ug/ml, compound 10 ug/ml
[27] = ConA 4 ug/ml, compound 25 ug/ml
[28] = ConA 4 ug/ml, compound 100 ug/ml
[29] = ConA 4 ug/ml, compound 300 ug/ml
[30] = ConA 4 ug/ml, compound 750 ug/ml

CCCCCCCC(=O)OC[C@H]1O[C@@]2(OC)COC(C)(C)O[C@H]2[C@@H]1O [Ii, methyl 1,3-O-isopropylidene-6-O-octanoyl-α-D-fructofuranoside]
effect on ConA T lymphocyte proliferation in words: less potent inhibitor of the mitogen induced T lymphocyte proliferative response; also recorded: significant inhibition observed at all dose levels on the 1 ug/ml ConA cultures | inhibition at 0.01 µg/mL [1]: -11% | inhibition at 0.01 µg/mL [2]: -7% | inhibition at 0.1 µg/mL [3]: -21% | inhibition at 1 µg/mL [4]: -52% | inhibition at 2.5 µg/mL [5]: -62% | inhibition at 10 µg/mL [6]: -13% | inhibition at 25 µg/mL [7]: -41% | inhibition at 100 µg/mL [8]: 27% | inhibition at 0.01 µg/mL [9]: -28% | inhibition at 0.01 µg/mL [10]: -37% | inhibition at 0.1 µg/mL [11]: -28% | inhibition at 1 µg/mL [12]: -17% | inhibition at 2.5 µg/mL [13]: -22% | inhibition at 10 µg/mL [14]: 1% | inhibition at 25 µg/mL [15]: -7% | inhibition at 100 µg/mL [16]: 47%

CCCCCCCSC[C@H]1OC(C)(C)O[C@@H]2[C@H]3OC(C)(C)O[C@H]3O[C@@H]21 [IIIn, 1,2:3,5-Di-O-Isopropylidene-6-deoxy-6-thio-n-heptyl-β-D-glucofuranose]
inhibition at 1 µg/mL [4]: 4% | inhibition at 10 µg/mL [6]: 29% | inhibition at 25 µg/mL [7]: 27% | inhibition at 100 µg/mL [8]: 84% | inhibition at 300 µg/mL [17]: 99% | inhibition at 750 µg/mL [18]: 99% | inhibition at 1 µg/mL [12]: -1% | inhibition at 10 µg/mL [14]: 12% | inhibition at 25 µg/mL [15]: 16% | inhibition at 100 µg/mL [16]: 76% | inhibition at 300 µg/mL [19]: 99% | inhibition at 750 µg/mL [20]: 98% | strong antiproliferative effect on ConA blastogenic response: greater than -50 % of control

CC1(C)OC2OC3C(CSCCN4CCCC4)OC(C)(C)OC3C2O1 [IIIp, 1,2:3,5-Di-O-Isopropylidene-6-deoxy-6-thio-2'-(ethyl-N"-pyrrolidyl)-α-D-glucofuranose]
Blastogenic response of normal spleen cells to Con-A (ConA 1 ug/ml, compound 1 ug/ml): 118,909 × 10^3 cpm | % change from control, ConA blastogenic response [21]: -23% | Blastogenic response of normal spleen cells to Con-A [21]: 55,282 ± 17,762 cpm | Blastogenic response of normal spleen cells to Con-A [22]: 101,268 ± 23,586 cpm | % change from control, ConA blastogenic response [23]: -11% | Blastogenic response of normal spleen cells to Con-A [23]: 64,122 ± 7,847 cpm | % change from control, ConA blastogenic response [24]: -63% | Blastogenic response of normal spleen cells to Con-A [24]: 26,948 ± 13,540 cpm | % change from control, ConA blastogenic response [25]: -94% | Blastogenic response of normal spleen cells to Con-A [25]: 3,976 ± 1,922 cpm | % change from control, ConA blastogenic response (ConA 4 ug/ml, compound 1 ug/ml): -17% | Blastogenic response of normal spleen cells to Con-A (ConA 4 ug/ml, compound 1 ug/ml): 81,109 × 10^3 cpm | % change from control, ConA blastogenic response [26]: -40% | Blastogenic response of normal spleen cells to Con-A [26]: 58,381 ± 7,921 cpm | % change from control, ConA blastogenic response [27]: -33% | Blastogenic response of normal spleen cells to Con-A [27]: 65,424 ± 13,480 cpm | % change from control, ConA blastogenic response [28]: -55% | Blastogenic response of normal spleen cells to Con-A [28]: 43,864 ± 9,618 cpm | % change from control, ConA blastogenic response [29]: -91% | Blastogenic response of normal spleen cells to Con-A [29]: 8,310 ± 945 × 10^3 cpm | % change from control, ConA blastogenic response [30]: -91% | Blastogenic response of normal spleen cells to Con-A [30]: 8,402 ± 3,070 cpm | inhibition at 10 µg/mL [6]: 23% | inhibition at 100 µg/mL [8]: 11% | inhibition at 300 µg/mL [17]: 63% | inhibition at 750 µg/mL [18]: 94% | inhibition at 1 µg/mL [12]: 17% | inhibition at 10 µg/mL [14]: 40% | inhibition at 25 µg/mL [15]: 33% | inhibition at 100 µg/mL [16]: 55% | inhibition at 300 µg/mL [19]: 91% | inhibition at 750 µg/mL [20]: 91% | strong antiproliferative effect on ConA blastogenic response: greater than -50 % of control

CCCCCCCC(=O)OC[C@H]1O[C@@]2(OC)COC(C)(C)O[C@H]2[C@@H]1OC(=O)CCCCCCC [Ij, methyl 1,3-O-isopropylidene-4,6-di-O-octanoyl-α-D-fructofuranoside]
inhibition at 0.01 µg/mL [1]: 60% | inhibition at 0.01 µg/mL [2]: 100% | inhibition at 0.1 µg/mL [3]: 100% | inhibition at 1 µg/mL [4]: 100% | inhibition at 2.5 µg/mL [5]: 100% | inhibition at 10 µg/mL [6]: 100% | inhibition at 25 µg/mL [7]: 100% | inhibition at 100 µg/mL [8]: 100% | inhibition at 0.01 µg/mL [9]: 3% | inhibition at 0.01 µg/mL [10]: -42% | inhibition at 0.1 µg/mL [11]: 12% | inhibition at 1 µg/mL [12]: -9% | inhibition at 2.5 µg/mL [13]: 15% | inhibition at 10 µg/mL [14]: 43% | inhibition at 25 µg/mL [15]: 79% | inhibition at 100 µg/mL [16]: 92%

CCCCCCCO[C@@H]1[C@@H](CO)O[C@@]2(CO)OC(C)(C)O[C@@H]12 [Ik, 2,3-O-isopropylidene-4-O-heptyl-β-D-fructofuranose]
Blastogenic response of normal spleen cells to Con-A (ConA 1 ug/ml, compound 0.001 ug/ml): 139.5 ± 4.0 × 10^-3 cpm | Blastogenic response of normal spleen cells to Con-A (ConA 1 ug/ml, compound 0.01 ug/ml): 146.4 ± 5.2 × 10^-3 cpm | Blastogenic response of normal spleen cells to Con-A (ConA 1 ug/ml, compound 0.1 ug/ml): 145 ± 6.9 × 10^-3 cpm | Blastogenic response of normal spleen cells to Con-A (ConA 1 ug/ml, compound 1 ug/ml): 119.1 ± 3.3 × 10^-3 cpm | Blastogenic response of normal spleen cells to Con-A (ConA 1 ug/ml, compound 2.5 ug/ml): 98.5 ± 7.0 × 10^-3 cpm | Blastogenic response of normal spleen cells to Con-A [22]: 1.4 ± 0.2 × 10^-3 cpm | Blastogenic response of normal spleen cells to Con-A [23]: 0.3 ± 0.1 × 10^-3 cpm | Blastogenic response of normal spleen cells to Con-A (ConA 4 ug/ml, compound 0.001 ug/ml): 167.1 ± 16.7 × 10^-3 cpm | Blastogenic response of normal spleen cells to Con-A (ConA 4 ug/ml, compound 0.01 ug/ml): 212.6 ± 16.3 × 10^-3 cpm | Blastogenic response of normal spleen cells to Con-A (ConA 4 ug/ml, compound 0.1 ug/ml): 183.6 ± 10.4 × 10^-3 cpm | Blastogenic response of normal spleen cells to Con-A (ConA 4 ug/ml, compound 1 ug/ml): 135.3 ± 10.8 × 10^-3 cpm | Blastogenic response of normal spleen cells to Con-A (ConA 4 ug/ml, compound 2.5 ug/ml): 90.4 ± 7.8 × 10^-3 cpm | Blastogenic response of normal spleen cells to Con-A [26]: 18.4 ± 0.2 × 10^-3 cpm | Blastogenic response of normal spleen cells to Con-A [27]: 2.5 ± 0.4 × 10^-3 cpm | Blastogenic response of normal spleen cells to Con-A [28]: 0.4 ± 0.1 × 10^-3 cpm | inhibition at 0.001 µg/mL (ConA 1 ug/ml, compound 0.001 ug/ml, read-out: % change from control, ConA blastogenic response): -11% | inhibition at 0.01 µg/mL [2]: -8% | inhibition at 0.1 µg/mL [3]: 3% | inhibition at 1 µg/mL [4]: 19% | inhibition at 2.5 µg/mL [5]: 21% | inhibition at 10 µg/mL [6]: 79% | inhibition at 25 µg/mL [7]: 99% | inhibition at 100 µg/mL [8]: 100% | inhibition at 0.001 µg/mL (ConA 4 ug/ml, compound 0.001 ug/ml, read-out: % change from control, ConA blastogenic response): 8% | inhibition at 0.01 µg/mL [10]: -14% | inhibition at 0.1 µg/mL [11]: 8% | inhibition at 1 µg/mL [12]: 35% | inhibition at 2.5 µg/mL [13]: 51% | inhibition at 10 µg/mL [14]: 91% | inhibition at 25 µg/mL [15]: 99% | inhibition at 100 µg/mL [16]: 100%
